Results as given in publication PMC9312958, “A Novel and Selective Dopamine Transporter Inhibitor, (S)-MK-26, Promotes Hippocampal Synaptic Plasticity and Restores Effort-Related Motivational Dysfunctions” (Biomolecules, 2022).

What was measured:
hDAT [1] = molecular target: T1, hDAT (Homo sapiens, UniProt Q01959); experiment: hDAT radioligand binding assay (CHO cells, [3H]BTCP)
T1 construct: expressed in transfected cells
Description: Binding affinity to the hDAT, hNET and hSERT expressed in CHO cells was evaluated in in vitro radioligand binding assays. Binding assays were conducted according to the standard and validated protocols under conditions defined by the contractor (Eurofins Cerep SA, Celle-’Evescault, France; study number 100054410). Antagonist radioligand assays were conducted for the human norepinephrine, the human dopamine, and the serotonin transporters (using CHO cells), using [^3H]nisoxetine (1 nM), [^3H]BTCP (4 nM), and [^3H]imipramine (2 nM) as ligands and desipramine (1 µM), BTCP (10 µM), and imipramine (10 µM) as non-specific agents, respectively (with scintillation counting as detection method).

[2] = system: adult male Sprague Dawley rats; experiment: PROG/chow feeding choice task; assay type: in vivo, rat
Description: Pharmacological agents: (S)-MK-26 was obtained from the Lubec Laboratory (University of Vienna, Austria) and dissolved in dimethyl sulfoxide (DMSO) (10%), Tween 80 (15%), and 0.9% saline (75%). The DMSO/Tween 80/saline mixture was administered as the vehicle control. The dose range was selected as 3.75–45.0 mg/kg based on its DAT affinity and pilot studies. It was administered 30 min before testing. TBZ (9,10-dimethoxy3-(2-methylpropyl)-1,3,4,6,7, 11b hexahydrobenzo[a]quinolizin2-one) was obtained from Tocris Bioscience (Ellisville, MO) and was dissolved in DMSO (20%) and 0.9% saline (80%) and was titrated with 1.0 N HCl until the drug was dissolved at a pH of 4.0–4.5. The DMSO/saline solution with equal amounts of HCl was administered as the vehicle control. The selected dose was 1.0mg/kg based on the previous research from our laboratory. It was administered 120 min prior to testing. […]
Behavioral sessions were conducted in operant chambers (28 × 23 × 23 cm^3; Med Associates, Fairfax, VT) with 30 min sessions 5 days/week. […] The number of lever pressing was recorded and the amount of consumed chow was calculated by weighing the remaining food, including spillage. […]

hDAT [3] = molecular target: T1, hDAT; experiment: Uptake inhibition assay in HEK293 cells expressing hDAT; assay type: cell-based
Description: Human embryonic kidney 293 cells (HEK293 cells) were cultivated in Dulbecco’s Modified Eagle Medium (DMEM), containing 10% heat-inactivated fetal calf serum (FCS; 100 mL/L), streptomycin (100 μg/100 mL) and penicillin ([…]). Geneticin (50 μg/mL) was added to select cells stably expressing the human isoforms of dopamine, norepinephrine and serotonin transporter (hDAT, hNET, and hSERT, respectively) as described earlier. Cell lines were maintained in culture in humidified atmosphere (37 °C, 5% CO2), and passaged when reached 80–90% confluency. Cells expressing the desired transporter were seeded the day before the experiment (40,000 cells per well) or two days before the experiments (20,000 cells per well) onto poly-D-lysine (PDL)-coated 96-well plates.
Uptake inhibition experiments were carried out as reported previously. Ninety-six-well plates containing hDAT-, hNET- or hSERT-expressing cells were washed with Krebs-HEPES buffer (KHB; 25 mM HEPES, 120 mM NaCl, 5 mM KCl, 1.2 mM CaCl2, and 1.2 mM MgSO4 and 5 mM D-glucose, pH = 7.3). Cells were then preincubated with increasing concentrations of the compound diluted in KHB for 6 min. Following the pre-incubation of the cells with the compound, the tritiated substrate (hDAT: 0.15 μM [^3H]DA; hNET: 0.05 μM [^3H]MPP^+; hSERT: 0.1 μM [^3H]5-HT) was added to the wells. The uptake was terminated by removal of tritiated substrate and by washing the cells with ice-cold KHB after 1 min (for hDAT and hSERT) or 3 min (for hNET). Thereafter, 200 μL of Ultima Gold^TM XR scintillation cocktail (PerkinElmer, MA, USA) was added, the plates were shaken and the radioactivity accumulated into the cells determined in a Wal-lac 1450 MicroBeta TriLux Liquid Scintillation Counter & Lumi (GMI, Ramsey, MN, USA). Non- specific tritiated substrate uptake was measured in the presence of 100 μM cocaine (for hDAT and hNET) or 10 μM paroxetine (for hSERT), and subtracted from the data. Uptake in the presence of test drugs was normalized to the uptake in the presence of the vehicle.

T1 sequence (Q01959 whole entry): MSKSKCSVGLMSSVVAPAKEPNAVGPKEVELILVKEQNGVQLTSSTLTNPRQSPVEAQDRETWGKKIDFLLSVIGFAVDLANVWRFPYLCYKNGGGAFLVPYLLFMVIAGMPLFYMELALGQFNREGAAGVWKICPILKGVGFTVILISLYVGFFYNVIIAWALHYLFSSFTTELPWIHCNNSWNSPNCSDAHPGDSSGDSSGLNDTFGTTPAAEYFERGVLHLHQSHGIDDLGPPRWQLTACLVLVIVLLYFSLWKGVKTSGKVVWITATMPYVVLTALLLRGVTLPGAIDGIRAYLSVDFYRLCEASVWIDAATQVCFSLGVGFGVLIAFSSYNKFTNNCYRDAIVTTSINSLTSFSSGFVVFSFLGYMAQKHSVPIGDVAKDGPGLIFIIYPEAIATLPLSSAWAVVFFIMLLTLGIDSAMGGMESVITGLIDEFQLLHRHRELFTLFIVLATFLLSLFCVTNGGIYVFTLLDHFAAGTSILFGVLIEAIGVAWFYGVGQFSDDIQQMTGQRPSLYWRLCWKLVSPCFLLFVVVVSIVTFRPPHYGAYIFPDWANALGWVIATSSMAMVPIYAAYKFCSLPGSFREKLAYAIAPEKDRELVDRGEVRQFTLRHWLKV

[O-][S@@+](Cc1cncs1)C(c1cccc(Cl)c1)c1cccc(Cl)c1 [(S)-MK-26, (S)-5-(((B(3-chlorophenyl)methyl)sulphinyl)methyl)thiazole]
Ki (hDAT [1]): 26 nM | effect on PROG lever presses ([2]; 45.0 mg/kg i.p. alone vs vehicle, p = 0.011): statistically significant difference between the vehicle and the highest dose | effect on chow intake ([2]; 30.0 and 45.0 mg/kg i.p. alone vs vehicle): decreased chow intake | IC50 (hDAT [3]): 560 nM | fold lower hDAT IC50 compared to (R)-MK-26 (hDAT [3]; uptake inhibition, HEK293): approximately 65 fold | fold lower hDAT IC50 compared to (R)-Modafinil (hDAT [3]; uptake inhibition, HEK293): 10 fold
